In patent publication US10857180B2, “Pharmaceutical composition for improving health, cure abnormalities and degenerative disease, achieve anti-aging effect of therapy and therapeutic effect on mammals and method thereof” (priority 2014, dated 2020):
“And” between values parts separate entries of the source, which are not always exact repeats. Equal entries are not always repeated. Marks after values point to notes of the source that are not given here.

Experiments:
mouse L1210 leukemia = test: Mouse L1210 leukemia model; assay type: in vivo
Method: The efficacy of the ^64Zne aspartate composition with respect to growth and metastatic activity of the experimental tumor (strain of mouse L1210 leukemia) was assessed in the experiment. […] To inoculate the strain, tumor cells derived from ascitic fluid were placed in normal saline solution, the cellularity of suspension was determined using a hemocytometer and adjusted to a concentration of 1×10^6 cells/ml with saline solution. The tumor was transplanted by injecting 250 μl of the tumor cell suspension (0.25×10^6 cells/mouse) into abdominal cavities of the animals. 80 male BDFi mice at the age of 8-10 weeks, weighing 18-22 g were used in the experiment.
In the experiment, 0.25×10^6 cells of mouse L1210 leukemia in 0.3 ml of saline solution were injected in the peritoneal cavities of the BDFi mice. The agent according to the invention was dissolved in deuterium-depleted water (deuterium-depleted water Langvey) and given to the experimental animals from the first day after the inoculation of the tumor cells. The solution composition comprising ^64Zne aspartate and deuterium-depleted water was injected intraperitoneally using a microinjection syringe at doses of 25 μg/mouse, 50 μg/mouse and 75 pig/mouse every other day (7 times during 14 days) in a volume of 0.5 ml/mouse. The said agent was also injected intravenously at a dose of 25 μg/mouse every other day (7 times during 14 days) in a volume of 0.2 ml/mouse. […] At day 8, 13 and 18 after inoculation of tumor cells, the whole ascites fluid was recovered from the animals and the total number of live/dead cells in each mouse was determined. Some mice were also used to evaluate their average life span in the experiment.
Clinical observations were carried out as described in Example 7. The animals were divided into groups as follows (16 mice per group): • 1. Group No 1: control group, L1210+solvent (deuterium-depleted water); • 2. Group No 2: L1210+^64Zne aspartate administered i.v. at a dose of 25 μg/mouse; • 3. Group No 3: L1210+^64Zne aspartate administered i.p. at a dose of 25 μg/mouse; • 4. Group No 4: L1210+^64Zne aspartate administered i.p. at a dose of 50 μg/mouse; • 5. Group No 5: L1210+^64Zne aspartate administered i.p. at a dose of 75 μg/mouse.
^64Zne aspartate was diluted in deuterium-depleted water and injected, starting from the first day of the tumor transplantation, 7 times every other day during 14 days in a volume of 0.5 ml/mouse using an i.p. route of administration and in a volume of 0.2 ml/mouse using an i.v. route of administration. The animals of the control group received intraperitoneal injections with 0.5 ml/mouse of deuterium-depleted water.
The dynamics of formation of ascites in the control and experimental groups was assessed visually using a 10-point scale (one point was 0.5 cm of the mean diameter of the mouse abdomen filled with ascites).
In addition, at 8, 13 and 18 days after the mice were inoculated with the tumor cells, all ascitic fluid was removed from the abdomens in all animals from each group by washing their peritoneal cavities with saline solution and live and dead tumor cells were counted using the traditional vital dye trypan blue (HyClon, USA) and a hemocytometer.
The number of cells was determined using the following formula: X=((a)/80)×10^6, where X is the number of cells in 1 ml and a is the number of cells counted in 80 small squares of the hemocytometer.
50% of the mice in each group were used to assess their average length of survival in the experiment. The percentage change in the lifespan of the experimental animals was calculated using the following formula: (c−d)/[…]×100, where: c is the average lifespan in the experimental group and d is the average lifespan in the control group. The total time of observation of the lifespan of the experimental animals was 60 days after the tumor inoculation.

[1] = tested on: human melanoma tumor cells (MM-4 cell line); test: Scratch assay, MM-4 cells; assay type: cell-based; conditions: ^64Zn 15 mcg/ml; 48 hours in control
Method: The cells of A-549, A-431, NRK, HaCaT, MM-4, normal fibroblasts (derived from the Bank of Cell Lines from human and animal tissues, R. E. Kavetsky Institute of Experimental Pathology, Oncology and Radiobiology, National Academy of Sciences of Ukraine) were cultured in complete culture medium RPMI 1640/DMEM (PAA, Austria) (depending on the cell type) supplemented with 10% fetal calf serum (PAA, Austria) and incubated in 5% CO2 humidified atmosphere at 37° C. The culture medium was replaced in 2 to 3 days and the cells were passaged in 4 to 5 days.
Analysis of the influence of the components under study on the cell migration rate was performed using the scratch assay method. […]
The plate was incubated in a CO2 incubator for additional 48 hours. After the cells formed a dense monolayer it was damaged (by making a “scratch”) and the growth medium was replaced to remove cell debris and smooth the edges of the “scratch.” The rate of cell migration was analyzed using an inverted microscope and by photographing cells in the area of injury. The migration activity of cells was fixed at several time points (depending on the cell line analyzed). The microphotomicrographs were analyzed and the cell incubation time needed to restore the monolayer was determined for all experimental groups. […]

NC(CC(=O)[O-])C(=O)[O-].[64Zn+2] (racemic) [^64Zne aspartate, ^64Zn aspartate (racemic)]
decrease in the number of live cells in the peritoneal cavities (mouse L1210 leukemia; 50 μg/mouse or 75 μg/mouse, after 3 injections): 100% | Number of live cells/mouse (M ± m) (mouse L1210 leukemia; day 8, i.p. 25 μg/mouse): 335.8 × 10^6 | Percentage of dead tumor cells in ascites fluid (mouse L1210 leukemia; day 8, i.p. 25 μg/mouse): below 2% | Volume of ascites (M ± m) (mouse L1210 leukemia; day 8, i.p. 25 μg/mouse): 0.8 ± 0.8 ml/mouse | number of cells in the ascites of the one mouse with tumor cells (mouse L1210 leukemia; day 8, i.p. 25 μg/mouse, 1 of 2 mice): indicators (671. 6 × 10^6). No | Number of live cells/mouse (M ± m) (mouse L1210 leukemia; day 8, i.p. 50 μg/mouse): 0** | Percentage of dead tumor cells in ascites fluid (mouse L1210 leukemia; day 8, i.p. 50 μg/mouse): 0% | Volume of ascites (M ± m) (mouse L1210 leukemia; day 8, i.p. 50 μg/mouse): 0* ml/mouse | Number of live cells/mouse (M ± m) (mouse L1210 leukemia; day 8, i.p. 75 μg/mouse): 0** | Percentage of dead tumor cells in ascites fluid (mouse L1210 leukemia; day 8, i.p. 75 μg/mouse): 0% | Volume of ascites (M ± m) (mouse L1210 leukemia; day 8, i.p. 75 μg/mouse): 0* ml/mouse | Number of live cells/mouse (M ± m) (mouse L1210 leukemia; day 8, i.v. 25 μg/mouse): 902 × 10^6 | Percentage of dead tumor cells in ascites fluid (mouse L1210 leukemia; day 8, i.v. 25 μg/mouse): below 2% | Volume of ascites (M ± m) (mouse L1210 leukemia; day 8, i.v. 25 μg/mouse): 1.2 ± 0.3 ml/mouse | Number of live cells/mouse (M ± m) (mouse L1210 leukemia; day 13, i.p. 25 μg/mouse): 532.7 × 10^6 | Percentage of dead tumor cells in ascites fluid (mouse L1210 leukemia; day 13, i.p. 25 μg/mouse): below 3% | Volume of ascites (M ± m) (mouse L1210 leukemia; day 13, i.p. 25 μg/mouse): 1.9 ± 1.5 ml/mouse | Number of live cells/mouse (M ± m) (mouse L1210 leukemia; day 13, i.p. 50 μg/mouse): 0** | Percentage of dead tumor cells in ascites fluid (mouse L1210 leukemia; day 13, i.p. 50 μg/mouse): 0% | Volume of ascites (M ± m) (mouse L1210 leukemia; day 13, i.p. 50 μg/mouse): 0* ml/mouse | Number of live cells/mouse (M ± m) (mouse L1210 leukemia; day 13, i.p. 75 μg/mouse): 0** | Percentage of dead tumor cells in ascites fluid (mouse L1210 leukemia; day 13, i.p. 75 μg/mouse): 0% | Volume of ascites (M ± m) (mouse L1210 leukemia; day 13, i.p. 75 μg/mouse): 0* ml/mouse | Number of live cells/mouse (M ± m) (mouse L1210 leukemia; day 13, i.v. 25 μg/mouse): 1322 × 10^6 | Percentage of dead tumor cells in ascites fluid (mouse L1210 leukemia; day 13, i.v. 25 μg/mouse): below 3% | Volume of ascites (M ± m) (mouse L1210 leukemia; day 13, i.v. 25 μg/mouse): 6 ± 1.5 ml/mouse | amount of ascites less than control (mouse L1210 leukemia; day 15, 50 μg): 87% | amount of ascites less than control (mouse L1210 leukemia; day 15, 75 μg): 90% | amount of ascites less than control (mouse L1210 leukemia; day 15, i.p. 25 μg/mouse): 60% | Average lifespan of animals (M ± m) (mouse L1210 leukemia; i.p. 25 μg/mouse): 28.1 ± 4.7 days | Increase in the lifespan of experimental animals (mouse L1210 leukemia; i.p. 25 μg/mouse): 41.3% | Number of animals in the group with tumor (mouse L1210 leukemia; i.p. 25 μg/mouse): 11 pc | Number of animals in the group without tumor (mouse L1210 leukemia; i.p. 25 μg/mouse): 5 pc | Tumor-free animals (mouse L1210 leukemia; i.p. 25 μg/mouse x7): 31.2% | Volume of ascites in mice (mouse L1210 leukemia; i.p. 25 μg/mouse x7, day 8): 0.6 ± 0.3 points | Volume of ascites in mice (mouse L1210 leukemia; i.p. 25 μg/mouse, day 10): 1.1 ± 0.5 points | Volume of ascites in mice (mouse L1210 leukemia; i.p. 25 μg/mouse, day 13): 2.5± 0.6 points | Volume of ascites in mice (mouse L1210 leukemia; i.p. 25 μg/mouse, day 15): 4.1 points and 4.1 ± 1.1 points | Volume of ascites in mice (mouse L1210 leukemia; i.p. 25 μg/mouse, day 18): 4.8 ± 1.4 points | Volume of ascites in mice (mouse L1210 leukemia; i.p. 25 μg/mouse, day 20): 4.6 ± 1.8 points | Volume of ascites in mice (mouse L1210 leukemia; i.p. 25 μg/mouse, day 22): 3.5 ± 2.2 points | Volume of ascites in mice (mouse L1210 leukemia; i.p. 25 μg/mouse, day 26): 2.5 ± 2.5 points | Volume of ascites in mice (mouse L1210 leukemia; i.p. 25 μg/mouse, day 28): 0 points | Average lifespan of animals (M ± m) (mouse L1210 leukemia; i.p. 50 μg/mouse): 41.6 ± 8.7 days | Increase in the lifespan of experimental animals (mouse L1210 leukemia; i.p. 50 μg/mouse): 60.3% | Number of animals in the group with tumor (mouse L1210 leukemia; i.p. 50 μg/mouse): 5 pc | Number of animals in the group without tumor (mouse L1210 leukemia; i.p. 50 μg/mouse): 11 pc | Tumor-free animals (mouse L1210 leukemia; i.p. 50 μg/mouse x7): 68.8% | Volume of ascites in mice (mouse L1210 leukemia; i.p. 50 μg/mouse x7, day 8): 0* points | Volume of ascites in mice (mouse L1210 leukemia; i.p. 50 μg/mouse, day 10): 0* points | Volume of ascites in mice (mouse L1210 leukemia; i.p. 50 μg/mouse, day 13): 0.4 ± 0.2 points | Volume of ascites in mice (mouse L1210 leukemia; i.p. 50 μg/mouse, day 15): 1.3 ± 0.7 points | Volume of ascites in mice (mouse L1210 leukemia; i.p. 50 μg/mouse, day 15, listed as 64Zn aspartate): 1.3 points | Volume of ascites in mice (mouse L1210 leukemia; i.p. 50 μg/mouse, day 18): 1.1 ± 1.1 points | Volume of ascites in mice (mouse L1210 leukemia; i.p. 50 μg/mouse, day 20): 0 points | Volume of ascites in mice (mouse L1210 leukemia; i.p. 50 μg/mouse, day 22): 0 points | Volume of ascites in mice (mouse L1210 leukemia; i.p. 50 μg/mouse, day 26): 0 points | Volume of ascites in mice (mouse L1210 leukemia; i.p. 50 μg/mouse, day 28): 0 points | Average lifespan of animals (M ± m) (mouse L1210 leukemia; i.p. 75 μg/mouse): 55 ± 5 days | Increase in the lifespan of experimental animals (mouse L1210 leukemia; i.p. 75 μg/mouse): 70% | Number of animals in the group with tumor (mouse L1210 leukemia; i.p. 75 μg/mouse): 1 pc | Number of animals in the group without tumor (mouse L1210 leukemia; i.p. 75 μg/mouse): 15 pc | Tumor-free animals (mouse L1210 leukemia; i.p. 75 μg/mouse x7): 93.8% | Volume of ascites in mice (mouse L1210 leukemia; i.p. 75 μg/mouse x7, day 8): 0* points | Volume of ascites in mice (mouse L1210 leukemia; i.p. 75 μg/mouse, day 10): 0* points | Volume of ascites in mice (mouse L1210 leukemia; i.p. 75 μg/mouse, day 13): 0.4 ± 0.4 points | Volume of ascites in mice (mouse L1210 leukemia; i.p. 75 μg/mouse, day 15): 1 ± 1 points | Volume of ascites in mice (mouse L1210 leukemia; i.p. 75 μg/mouse, day 15, listed as 64Zn aspartate): 1 points | Volume of ascites in mice (mouse L1210 leukemia; i.p. 75 μg/mouse, day 18): 1.1 ± 1.1 points | Volume of ascites in mice (mouse L1210 leukemia; i.p. 75 μg/mouse, day 20): 0 points | Volume of ascites in mice (mouse L1210 leukemia; i.p. 75 μg/mouse, day 22): 0 points | Volume of ascites in mice (mouse L1210 leukemia; i.p. 75 μg/mouse, day 26): 0 points | Volume of ascites in mice (mouse L1210 leukemia; i.p. 75 μg/mouse, day 28): 0 points | Increase in the lifespan of experimental animals (mouse L1210 leukemia; i.v. 25 μg/mouse): 2.4% | Number of animals in the group without tumor (mouse L1210 leukemia; i.v. 25 μg/mouse): 0 pc | Tumor-free animals (mouse L1210 leukemia; i.v. 25 μg/mouse): 0% | Volume of ascites in mice (mouse L1210 leukemia; i.v. 25 μg/mouse x7, day 8): 3.3 ± 0.3 points | Number of animals in the group with tumor (mouse L1210 leukemia; i.v. 25 μg/mouse, 16 mice per group): 16 pc | Average lifespan of animals (M ± m) (mouse L1210 leukemia; i.v. 25 μg/mouse, 60 days observation): 16.9 ± 1.3 days | Volume of ascites in mice (mouse L1210 leukemia; i.v. 25 μg/mouse, day 10): 4.7 ± 0.4 points | Volume of ascites in mice (mouse L1210 leukemia; i.v. 25 μg/mouse, day 13): 7.7 ± 0.4 points | Volume of ascites in mice (mouse L1210 leukemia; i.v. 25 μg/mouse, day 15): 9.7 ± 0.3 points | Volume of ascites in mice (mouse L1210 leukemia; i.v. 25 μg/mouse, day 18): 8 ± 0.9 points | Volume of ascites in mice (mouse L1210 leukemia; i.v. 25 μg/mouse, day 20): 10 points | percentage of dead tumor cells in the ascites treated with the agent (mouse L1210 leukemia; mouse, in vivo): ≤ 5% | effect on the growth of mouse leukemia L1210 cells (mouse L1210 leukemia; series of intravenous injections): no effect

O=S(=O)([O-])[O-].[64Zn+2] [^64Zn]
time of the gap closing [1]: 72 h
